{"source": "patent US11597702B2", "about": "“Substituted pyrazoles FFA4/GPR120 receptor agonists” (AXXAM S.P.A., priority 2018, dated 2023)", "data": [{"target": "T1, GPR120 (Homo sapiens, UniProt Q5NUL3)", "T1 construct": "expressed in transfected cells; host or cells: CHO mitoPhotinaGPR120 cells", "T1 sequence (Q5NUL3 1-361)": "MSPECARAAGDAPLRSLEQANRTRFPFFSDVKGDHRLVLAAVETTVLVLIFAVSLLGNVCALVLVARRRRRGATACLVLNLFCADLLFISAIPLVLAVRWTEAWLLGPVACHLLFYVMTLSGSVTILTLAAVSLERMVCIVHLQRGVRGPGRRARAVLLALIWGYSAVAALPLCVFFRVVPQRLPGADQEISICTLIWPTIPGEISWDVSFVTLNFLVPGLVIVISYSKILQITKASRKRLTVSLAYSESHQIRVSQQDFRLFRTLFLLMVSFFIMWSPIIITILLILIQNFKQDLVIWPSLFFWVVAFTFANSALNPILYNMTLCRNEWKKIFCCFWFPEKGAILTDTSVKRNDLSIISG", "assay": "GPR120 agonism in CHO mitoPhotinaGPR120 cell based assay with fluorescent (Fluo-8 calcium, FLIPRTetra) readout, Agonist Mode, dose response", "conditions": "CHO mitoPhotinaGPR120 cells, Fluo-8 No Wash Ca2+ dye, dose response in quadruplicate, 0.0033% fatty acid free BSA", "method": "Compounds of the invention were tested for GPR120 agonism in a CHO mitoPhotinaGPR120 cell based assay with fluorescent readout in Agonist Mode in dose response in quadruplicate with intra-plate modality.\nTwenty (20) h after seeding, growth medium was manually removed and cells were starved in the presence of 25 μL/w of Standard Tyrode's Buffer. After 3 h, cells were loaded with 20 μL/w of 0.5× Fluo-8 No Wash (AAT Bioquest, Inc.) Ca2+ sensitive dye prepared in Standard Tyrode's Buffer. Cells were incubated for 1 h at room temperature in the dark. Ten (10) μL/w 3× of controls and compounds were diluted in Standard Tyrode's Buffer+0.01% fatty acid free BSA (final concentration=0.0033%) and injected at the FLIPRTetra®, recording the kinetic calcium traces for 3 minutes. Standard Tyrode's buffer composition: 5 mM KCl, 130 mM NaCl, 2 mM CaCl2), 5 mM NaHCO3, 1 mM MgCl2, 20 mM HEPES, pH7.4.", "units": {"EC50": "µM"}, "values": [{"smiles": "COc1ccc(-n2nc(C)c(C#N)c2COc2ccc(CCO)cc2)cc1", "note": "[Example 80, 5-[[4-(2-hydroxyethyl)phenoxy]methyl]-1-(4-methoxyphenyl)-3-methyl-pyrazole-4-carbonitrile]", "EC50": 0.64}, {"smiles": "Cc1nn(-c2ccccc2F)c(COc2ccc(CCO)cc2)c1C#N", "note": "[Example 82, 1-(2-fluorophenyl)-5-[[4-(2-hydroxyethyl)phenoxy]methyl]-3-methyl-pyrazole-4-carbonitrile]", "EC50": 3.41}, {"smiles": "Cc1nn(-c2ccc(F)cc2)c(COc2ccccc2)c1C#N", "note": "[Example 83, 1-(4-fluorophenyl)-3-methyl-5-(phenoxymethyl)pyrazole-4-carbonitrile]", "EC50": 2.22}, {"smiles": "Cc1nn(-c2ccc(F)cc2)c(COc2ccc(CCO)cc2)c1C#N", "note": "[Example 84, 1-(4-fluorophenyl)-5-[[4-(2-hydroxyethyl)phenoxy]methyl]-3-methyl-pyrazole-4-carbonitrile]", "EC50": 1.54}, {"smiles": "Cc1nn(-c2ccc(F)cc2)c(COc2cccc(F)c2)c1C#N", "note": "[Example 85, 5-[(3-fluorophenoxy)methyl]-1-(4-fluorophenyl)-3-methyl-pyrazole-4-carbonitrile]", "EC50": 4.55}, {"smiles": "Cc1ccccc1OCc1c(C#N)c(C)nn1-c1ccc(F)cc1", "note": "[Example 86, 1-(4-fluorophenyl)-3-methyl-5-[(2-methylphenoxy)methyl]pyrazole-4-carbonitrile]", "EC50": 1.58}, {"smiles": "Cc1nn(-c2ccc(F)cc2)c(COc2ccc(CCCO)cc2)c1C#N", "note": "[Example 87, 1-(4-fluorophenyl)-5-[[4-(3-hydroxypropyl)phenoxy]methyl]-3-methyl-pyrazole-4-carbonitrile]", "EC50": 0.18}, {"smiles": "Cc1nn(Cc2ccccc2)c(COc2ccc(CCO)cc2)c1C#N", "note": "[Example 88, 1-benzyl-5-[[4-(2-hydroxyethyl)phenoxy]methyl]-3-methyl-pyrazole-4-carbonitrile]", "EC50": 11.2}, {"smiles": "Cc1nn(Cc2ccccc2)c(COc2ccc(CCCO)cc2)c1C#N", "note": "[Example 89, 1-benzyl-5-[[4-(3-hydroxypropyl)phenoxy]methyl]-3-methyl-pyrazole-4-carbonitrile]", "EC50": 0.99}, {"smiles": "Cc1nn(Cc2ccccc2)c(COc2c(F)cc(CCCO)cc2F)c1C#N", "note": "[Example 90, 1-benzyl-5-[[2,6-difluoro-4-(3-hydroxypropyl)phenoxy]methyl]-3-methyl-pyrazole-4-carbonitrile]", "EC50": 0.31}, {"smiles": "COc1ccc(Cn2nc(C)c(C#N)c2COc2ccc(CCO)cc2)cc1", "note": "[Example 91, 5-[[4-(2-hydroxyethyl)phenoxy]methyl]-1-[(4-methoxyphenyl)methyl]-3-methyl-pyrazole-4-carbonitrile]", "EC50": 16.5}, {"smiles": "Cc1nn(-c2ccccc2)c(C(C)Oc2ccc(CCO)cc2)c1C#N", "note": "(stereo not shown) [Example 92, 5-[1-[4-(2-hydroxyethyl)phenoxy]ethyl]-3-methyl-1-phenyl-pyrazole-4-carbonitrile]", "EC50": 3.66}, {"smiles": "Cc1nn(-c2ccccc2)c(C(C)Oc2c(F)cc(CCCO)cc2F)c1C#N", "note": "(stereo not shown) [Example 93, 5-[1-[2,6-difluoro-4-(3-hydroxypropyl)phenoxy]ethyl]-3-methyl-1-phenyl-pyrazole-4-carbonitrile]", "EC50": 0.33}, {"smiles": "Cc1nn(-c2ccccc2)c(C(F)(F)Oc2ccc(CCO)cc2)c1C#N", "note": "[Example 94, 5-[difluoro-[4-(2-hydroxyethyl)phenoxy]methyl]-3-methyl-1-phenyl-pyrazole-4-carbonitrile]", "EC50": 1.35}, {"smiles": "Cc1nn(-c2ccccc2)c(C(F)(F)Oc2ccc(CCCO)cc2)c1C#N", "note": "[Example 95, 5-[difluoro-[4-(3-hydroxypropyl)phenoxy]methyl]-3-methyl-1-phenyl-pyrazole-4-carbonitrile]", "EC50": 0.83}, {"smiles": "Cc1nn(-c2ccccc2)c(C(F)(F)Oc2c(F)cc(CCCO)cc2F)c1C#N", "note": "[Example 96, 5-[[2,6-difluoro-4-(3-hydroxypropyl)phenoxy]-difluoro-methyl]-3-methyl-1-phenyl-pyrazole-4-carbonitrile]", "EC50": 0.52}, {"smiles": "Cc1nn(-c2ccccc2)c(COCc2ccc(C#N)cc2)c1C#N", "note": "[Example 97, 5-[(4-cyanophenyl)methoxymethyl]-3-methyl-1-phenyl-pyrazole-4-carbonitrile]", "EC50": 2.8}, {"smiles": "Cc1nn(-c2ccc(F)cc2)c(COCc2ccccc2)c1C#N", "note": "[Example 98, 5-(benzyloxymethyl)-1-(4-fluorophenyl)-3-methyl-pyrazole-4-carbonitrile]", "EC50": 9.9}, {"smiles": "Cc1nn(-c2cccc(F)c2)c(COc2ccc(CCO)cc2)c1C#N", "note": "[Example 101, 1-(3-fluorophenyl)-5-[[4-(2-hydroxyethyl)phenoxy]methyl]-3-methyl-pyrazole-4-carbonitrile]", "EC50": 1.48}, {"smiles": "Cc1nn(-c2ccccn2)c(COc2ccc(CCO)cc2)c1C#N", "note": "[Example 102, 5-[[4-(2-hydroxyethyl)phenoxy]methyl]-3-methyl-1-(2-pyridyl)pyrazole-4-carbonitrile]", "EC50": 0.53}, {"smiles": "Cc1nn(-c2cccnc2)c(COc2ccc(CCO)cc2)c1C#N", "note": "[Example 103, 5-[[4-(2-hydroxyethyl)phenoxy]methyl]-3-methyl-1-(3-pyridyl)pyrazole-4-carbonitrile]", "EC50": 9.22}, {"smiles": "Cc1nn(-c2ccncc2)c(COc2ccc(CCO)cc2)c1C#N", "note": "[Example 104, 5-[[4-(2-hydroxyethyl)phenoxy]methyl]-3-methyl-1-(4-pyridyl)pyrazole-4-carbonitrile]", "EC50": 10.4}, {"smiles": "Cc1nn(-c2ncccn2)c(COc2ccc(CCO)cc2)c1C#N", "note": "[Example 105, 5-[[4-(2-hydroxyethyl)phenoxy]methyl]-3-methyl-1-pyrimidin-2-yl-pyrazole-4-carbonitrile]", "EC50": 12.6}, {"smiles": "Cc1nn(-c2cccnn2)c(COc2ccc(CCO)cc2)c1C#N", "note": "[Example 106, 5-[[4-(2-hydroxyethyl)phenoxy]methyl]-3-methyl-1-pyridazin-3-yl-pyrazole-4-carbonitrile]", "EC50": 2.49}, {"smiles": "Cc1nn(-c2ccc(C#N)cc2)c(COc2ccc(CCO)cc2)c1C#N", "note": "[Example 107, 1-(4-cyanophenyl)-5-[[4-(2-hydroxyethyl)phenoxy]methyl]-3-methyl-pyrazole-4-carbonitrile]", "EC50": 8.15}, {"smiles": "Cc1nn(-c2ccc(C(F)(F)F)cc2)c(COc2ccc(CCO)cc2)c1C#N", "note": "[Example 109, 5-[[4-(2-hydroxyethyl)phenoxy]methyl]-3-methyl-1-[4-(trifluoromethyl)phenyl]pyrazole-4-carbonitrile]", "EC50": 3.22}, {"smiles": "Cc1nn(-c2c(F)cccc2F)c(COc2ccc(CCO)cc2)c1C#N", "note": "[Example 112, 1-(2,6-difluorophenyl)-5-[[4-(2-hydroxyethyl)phenoxy]methyl]-3-methyl-pyrazole-4-carbonitrile]", "EC50": 10.2}, {"smiles": "Cc1nn(-c2ccc(F)cc2F)c(COc2ccc(CCO)cc2)c1C#N", "note": "[Example 114, 1-(2,4-difluorophenyl)-5-[[4-(2-hydroxyethyl)phenoxy]methyl]-3-methyl-pyrazole-4-carbonitrile]", "EC50": 5.55}, {"smiles": "Cc1nn(-c2ccc(OC(F)(F)F)cc2)c(COc2ccc(CCO)cc2)c1C#N", "note": "[Example 115, 5-[[4-(2-hydroxyethyl)phenoxy]methyl]-3-methyl-1-[4-(trifluoromethoxy)phenyl]pyrazole-4-carbonitrile]", "EC50": 4.62}, {"smiles": "Cc1nn(-c2ccc(Cl)nn2)c(COc2ccc(CCO)cc2)c1C#N", "note": "[Example 116, 1-(6-chloropyridazin-3-yl)-5-[[4-(2-hydroxyethyl)phenoxy]methyl]-3-methyl-pyrazole-4-carbonitrile]", "EC50": 1.63}, {"smiles": "Cc1nn(C2CCCC2)c(COc2ccc(CCO)cc2)c1C#N", "note": "[Example 117, 1-cyclopentyl-5-[[4-(2-hydroxyethyl)phenoxy]methyl]-3-methyl-pyrazole-4-carbonitrile]", "EC50": 1.2}, {"smiles": "Cc1nn(C2CCCCC2)c(COc2ccc(CCO)cc2)c1C#N", "note": "[Example 118, 1-cyclohexyl-5-[[4-(2-hydroxyethyl)phenoxy]methyl]-3-methyl-pyrazole-4-carbonitrile]", "EC50": 2.24}, {"smiles": "Cc1cc(COc2ccc(CCO)cc2)n(-c2ccccc2)n1", "note": "[Example 126, 2-[4-[(5-methyl-2-phenyl-pyrazol-3-yl)methoxy]phenyl]ethanol]", "EC50": 5.92}, {"smiles": "N#Cc1cnn(-c2ccccc2)c1COc1ccc(CCO)cc1", "note": "[Example 129, 5-[[4-(2-hydroxyethyl)phenoxy]methyl]-1-phenyl-pyrazole-4-carbonitrile]", "EC50": 3.33}, {"smiles": "N#Cc1cnn(-c2ccccc2)c1COc1ccc(CCCO)cc1", "note": "[Example 130, 5-[[4-(3-hydroxypropyl)phenoxy]methyl]-1-phenyl-pyrazole-4-carbonitrile]", "EC50": 0.19}, {"smiles": "Cc1nn(-c2ccccc2)c(COc2c(F)cc(CCC(=O)O)cc2F)c1C#N", "note": "[Example 133, 3-[4-[(4-cyano-5-methyl-2-phenyl-pyrazol-3-yl)methoxy]-3,5-difluoro-phenyl]propanoic acid]", "EC50": 9.73}, {"smiles": "Cc1nn(-c2ccccc2)c(COc2ccc(CCC3CCNCC3)cc2)c1C#N", "note": "[Example 136, 3-methyl-1-phenyl-5-[[4-[2-(4-piperidyl)ethyl]phenoxy]methyl]pyrazole-4-carbonitrile]", "EC50": 17.7}]}]}
